Assay results reported in US6723333B1, “Moulded bodies made of thermoplastic polyurethane containing an active substance” (priority 1998, dated 2004).

System: sensor bacteria (E. coli—test strain)
Test: Bioimaging of released active substance by effect-dependent bioluminescence of sensor bacteria
Assay type: cell-based
Details: after high temperatures of about 200° C. required for thermoplastic processing
Experimental: Microbiological evaluation and quantification of the release of active substance was performed using a new bioimaging technique. This method makes use of the selective effect-dependent bioluminescence of sensor bacteria (E. coli—test strain), in order to render visible the biological activity of the released active substance. The gyrase-inhibiting effect of ciprofloxacin was used in the system according to the invention, Texin® 5590 ciprofloxacin.
For imaging of the antibacterial effect, about 1 cm^2 sized samples of the active substance-containing material were placed in a petri dish and covered with a suspension of sensor bacteria in agarose. After an incubation period of about 30 minutes, the effect-dependent bioluminescence was assessed using a video-imaging system (e.g. EG&G Berthold, Luminograph LB 980). Antibiotic samples then appeared as luminescing areas.

O=C(O)c1cn(C2CC2)c2cc(N3CCNCC3)c(F)cc2c1=O [ciprofloxacin]
microbiological efficacy of the ciprofloxacin released from the polymer matrix: retained
